Read-outs that look alike come from different tables or passages of the source.
How the values were obtained:
recombinant human NQO2 = molecular target: T1, recombinant human NQO2 (Homo sapiens, UniProt P16083); experiment: NQO2 enzyme inhibition assay (DCPIP substrate, NRH or EPR co-substrate); format: biochemical; settings: for reduction in potency relative to compound 40: removal of the 4-OMe or the 5-OMe from 40
T1 sequence (P16083 1-231): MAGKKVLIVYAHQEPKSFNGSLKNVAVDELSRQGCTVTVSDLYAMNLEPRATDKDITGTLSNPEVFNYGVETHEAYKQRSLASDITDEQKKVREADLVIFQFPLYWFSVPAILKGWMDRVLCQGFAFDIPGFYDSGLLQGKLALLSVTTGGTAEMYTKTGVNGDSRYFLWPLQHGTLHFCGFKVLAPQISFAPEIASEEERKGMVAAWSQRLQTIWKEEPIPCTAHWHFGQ
Description: In this assay, dichlorophenolindophenol (DCPIP) was used as a substrate for NQO2. NRH (SI or EP0152R) was used as the co-substrate for the enzyme.
The NQO2 enzyme assay was carried out using a […] GO spectrophotometer by measuring the absorbance of DCPIP at 600 nm. NRH [31] or EPR were used as co-substrates. The experiment was performed using a 96-well plate with a […] final volume using phosphate buffer (50 mM, pH 7.4). The final concentrations were DCPIP 40 µM and NRH or EPR 200 µM. The final enzyme concentration was 100 ng. The assay was performed at 37 °C and initiated through the addition of NQO2. The initial rates of the enzyme reactions were calculated from the curve by taking the initial slopes of the reactions using the formula (ΔAb/ΔTime). The assay of inhibitors was carried out using the same assay conditions. […] Each experiment was performed in triplicate. Rates were converted to the percentage of enzyme activity, and IC50 values were calculated using GraphPad Prism 7.03 software using the non-linear regression function. IC50 values were determined as a 50% decrease in NQO2 activity.

[1] = DCPIP substrate, NRH co-substrate, read-out: IC50 for inhibition of NQO2
[2] = inhibition of NQO2, DCPIP 40 µM, NRH or EPR 200 µM, phosphate buffer pH 7.4, 37 °C, triplicate, read-out: IC50 (µM) ± SD

SMILES	IC50 (recombinant human NQO2; [1]) [µM]	IC50 (recombinant human NQO2; [2]) [µM]	reduction in potency relative to compound 40 (recombinant human NQO2) [fold]	melting point [°C]	inhibition of NQO2 enzymatic activity, in words (recombinant human NQO2)
COc1cc(OC)cc(-c2nc3ccc(OC)cc3s2)c1 [Compound 3, 2-(3,5-Dimethoxyphenyl)-6-methoxybenzo[d]thiazole]	0.108	0.108 ± 0.012	2	121 to 123	–
COc1cc(OC)cc(-c2nc3ccc(Br)cc3s2)c1 [Compound 4, 6-Bromo-2-(3,5-dimethoxyphenyl)benzo[d]thiazole]	–	> 100	–	164 to 165	–
COc1cc(OC)cc(-c2nc3ccc(C(F)(F)F)cc3s2)c1 [Compound 5, 2-(3,5-Dimethoxyphenyl)-6-(trifluoromethyl)benzo[d]thiazole]	0.123	0.123 ± 0.029	–	–	–
COc1cc(OC)cc(-c2nc3ccc(Cl)cc3s2)c1 [Compound 6, 6-Chloro-2-(3,5-dimethoxyphenyl)benzo[d]thiazole]	–	82.93 ± 0.04	–	150 to 151	–
COc1cc(OC)cc(-c2nc3ccc(C#N)cc3s2)c1 [Compound 7, 2-(3,5-Dimethoxyphenyl)benzo[d]thiazole-6-carbonitrile]	–	> 100	–	222 to 224	–
COc1cc(OC)cc(-c2nc3ccc(F)cc3s2)c1 [Compound 8, 2-(3,5-Dimethoxyphenyl)-6-fluorobenzo[d]thiazole]	–	> 100	–	138 to 140	–
COc1cc(OC)cc(-c2nc3ccc(I)cc3s2)c1 [Compound 9, 2-(3,5-Dimethoxyphenyl)-6-iodobenzo[d]thiazole]	–	2.46 ± 0.01	–	150 to 152	–
COc1cc(OC)cc(-c2nc3ccc([N+](=O)[O-])cc3s2)c1 [Compound 10, 2-(3,5-Dimethoxyphenyl)-6-nitrobenzo[d]thiazole]	–	93.44 ± 0.02	–	199 to 200	–
COc1cc(OC)cc(-c2nc3ccc(N)cc3s2)c1 [Compound 11, 2-(3,5-Dimethoxyphenyl)benzo[d]thiazol-6-amine]	0.863	0.863 ± 0.07	–	–	–
COc1cc(OC)cc(-c2nc3ccc(NC(C)=O)cc3s2)c1 [Compound 12, N-(2-(3,5-Dimethoxyphenyl)benzo[d]thiazol-6-yl)acetamide]	0.605	0.605 ± 0.06	–	179 to 181	–
COc1cc(OC)cc(-c2nc3ccc(NC(=O)c4ccccc4)cc3s2)c1 [Compound 13, N-(2-(3,5-Dimethoxyphenyl)benzo[d]thiazol-6-yl)benzamide]	–	8.44 ± 0.03	–	138 to 140	further loss of activity
COc1cc(OC)cc(C(=O)Nc2ccc3nc(-c4cc(OC)cc(OC)c4)sc3c2)c1 [Compound 14, N-(2-(3,5-Dimethoxyphenyl)benzo[d]thiazol-6-yl)-3,5-dimethoxybenzamide]	–	1.36 ± 0.06	–	159 to 162	further loss of activity
Oc1cc(O)cc(-c2nc3ccc(O)cc3s2)c1 [Compound 15, 6-Hydroxy-2-(3,5-dihydroxyphenyl)benzo[d]thiazole]	0.025	0.025 ± 0.003	–	–	–
COc1ccc(-c2nc3ccc(OC)cc3s2)c(OC)c1 [Compound 16, 2-(2,4-Dimethoxyphenyl)-6-methoxybenzo[d]thiazole]	–	5.86 ± 0.07	–	150 to 151	–
COc1ccc(-c2nc3ccc(Br)cc3s2)c(OC)c1 [Compound 17, 6-Bromo-2-(2,4-dimethoxyphenyl)benzo[d]thiazole]	56.9	56.9 ± 0.02	–	148 to 149	–
COc1ccc(-c2nc3ccc(C(F)(F)F)cc3s2)c(OC)c1 [Compound 18, 2-(2,4-Dimethoxyphenyl)-6-(trifluoromethyl)benzo[d]thiazole]	–	4.52 ± 0.04	–	–	–
COc1ccc(-c2nc3ccc(Cl)cc3s2)c(OC)c1 [Compound 19, 6-Chloro-2-(2,4-dimethoxyphenyl)benzo[d]thiazole]	33.5	33.55 ± 0.02	–	170 to 171	–
COc1ccc(-c2nc3ccc(C#N)cc3s2)c(OC)c1 [Compound 20, 2-(2,4-Dimethoxyphenyl)benzo[d]thiazole-6-carbonitrile]	–	> 100	–	235 to 237	–
COc1ccc(-c2nc3ccc(F)cc3s2)c(OC)c1 [Compound 21, 2-(2,4-Dimethoxyphenyl)-6-fluorobenzo[d]thiazole]	–	3.51 ± 0.08	–	157 to 158	–
COc1ccc(OC)c(-c2nc3ccc(OC)cc3s2)c1 [Compound 24, 2-(2,5-Dimethoxyphenyl)-6-methoxybenzo[d]thiazole]	0.846	0.846 ± 0.02	–	–	–
COc1ccc(OC)c(-c2nc3ccc(Br)cc3s2)c1 [Compound 25, 6-Bromo-2-(2,5-dimethoxyphenyl)benzo[d]thiazole]	–	6.71 ± 0.02	–	135 to 137	–
COc1ccc(OC)c(-c2nc3ccc(C(F)(F)F)cc3s2)c1 [Compound 26, 2-(2,5-Dimethoxyphenyl)-6-(trifluoromethyl)benzo[d]thiazole]	2.77	2.77 ± 0.01	–	–	–
COc1ccc(OC)c(-c2nc3ccc(Cl)cc3s2)c1 [Compound 27, 6-Chloro-2-(2,5-dimethoxyphenyl)benzo[d]thiazole]	1.18	1.18 ± 0.002	–	220 to 222	–
COc1ccc(OC)c(-c2nc3ccc(C#N)cc3s2)c1 [Compound 28, 2-(2,5-Dimethoxyphenyl)benzo[d]thiazole-6-carbonitrile]	–	> 100	–	182 to 184	–
COc1ccc(OC)c(-c2nc3ccc(F)cc3s2)c1 [Compound 29, 2-(2,5-Dimethoxyphenyl)-6-fluorobenzo[d]thiazole]	2.06	2.06 ± 0.01	–	105 to 107	–
COc1ccc2nc(-c3ccc(OC)c(OC)c3)sc2c1 [Compound 32, 2-(3,4-Dimethoxyphenyl)-6-methoxybenzo[d]thiazole]	1.27	1.27 ± 0.03	20	–	–

The remaining lines, values ahead:

IC50 (recombinant human NQO2; [1]) [µM]	IC50 (recombinant human NQO2; [2]) [µM]	reduction in potency relative to compound 40 (recombinant human NQO2) [fold]	melting point [°C]	inhibition of NQO2 enzymatic activity, in words (recombinant human NQO2)	SMILES
9.09	9.09 ± 0.04	–	165 to 168	–	COc1ccc(-c2nc3ccc(Br)cc3s2)cc1OC [Compound 33, 6-Bromo-2-(3,4-dimethoxyphenyl)benzo[d]thiazole]
–	> 100	–	–	–	COc1ccc(-c2nc3ccc(C(F)(F)F)cc3s2)cc1OC [Compound 34, 2-(3,4-Dimethoxyphenyl)-6-(trifluoromethyl)benzo[d]thiazole]
91.7	91.67 ± 0.08	–	–	–	COc1ccc(-c2nc3ccc(Cl)cc3s2)cc1OC [Compound 35, 6-Chloro-2-(3,4-dimethoxyphenyl)benzo[d]thiazole]
–	> 100	–	–	–	COc1ccc(-c2nc3ccc(C#N)cc3s2)cc1OC [Compound 36, 2-(3,4-Dimethoxyphenyl)benzo[d]thiazole-6-carbonitrile]
5.93	5.93 ± 0.05	–	–	–	COc1ccc(-c2nc3ccc(F)cc3s2)cc1OC [Compound 37, 2-(3,4-Dimethoxyphenyl)-6-fluorobenzo[d]thiazole]
22.9	22.94 ± 0.02	–	–	–	COc1ccc(-c2nc3ccc(I)cc3s2)cc1OC [Compound 38, 2-(3,4-Dimethoxyphenyl)-6-iodobenzo[d]thiazole]
–	63.28 ± 0.02	–	221 to 222	–	COc1ccc(-c2nc3ccc([N+](=O)[O-])cc3s2)cc1OC [Compound 39, 2-(3,4-Dimethoxyphenyl)-6-nitrobenzo[d]thiazole]
0.051	0.051 ± 0.02	–	–	–	COc1ccc2nc(-c3cc(OC)c(OC)c(OC)c3)sc2c1 [Compound 40, 6-Methoxy-2-(3,4,5-trimethoxyphenyl)benzo[d]thiazole]
–	0.193 ± 0.003	–	171 to 172	–	COc1cc(-c2nc3ccc(Br)cc3s2)cc(OC)c1OC [Compound 41, 6-Bromo-2-(3,4,5-trimethoxyphenyl)benzo[d]thiazole]
18.4	18.36 ± 0.03	–	–	–	COc1cc(-c2nc3ccc(C(F)(F)F)cc3s2)cc(OC)c1OC [Compound 42, 6-(Trifluoromethyl)-2-(3,4,5-trimethoxyphenyl)benzo[d]thiazole]
–	0.106 ± 0.004	–	–	–	COc1cc(-c2nc3ccc(I)cc3s2)cc(OC)c1OC [Compound 46, 6-Iodo-2-(3,4,5-trimethoxyphenyl)benzo[d]thiazole]
> 100	> 100	–	–	–	Fc1ccc(-c2nc3ccc(F)cc3s2)cc1 [Compound 56, 6-Fluoro-2-(4-fluorophenyl)benzo[d]thiazole]
12	11.78 ± 0.02	–	–	–	COc1ccc2nc(-c3cc(F)cc(F)c3)sc2c1 [Compound 57, 2-(3,5-Difluorophenyl)-6-methoxybenzo[d]thiazole]
–	> 100	–	–	loss of inhibition of NQO2 activity	Fc1cc(F)cc(-c2nc3ccc(F)cc3s2)c1 [Compound 58, 2-(3,5-Difluorophenyl)-6-fluorobenzo[d]thiazole]
